Experimental data published in US20100029609A1 (priority 2006, published 2010).

target: T1, human S1P1 receptors (Homo sapiens, UniProt P21453); test: Human S1P Receptor Calcium FLIPR Antagonist Assay, HeLa Gα16 S1P1; assay type: cell-based; conditions: HeLa-S1P1/Gα16 cells; antagonism of Ca2+ signal of probing agonist GNF-AC-1 at EC80
T1 construct: expressed in transfected cells; host or cells: HeLa (human cervix carcinoma, ATCC CCL2), HeLa-S1P1/Gα16 cell clone 1
From the text: Human S1P Receptor Calcium FLIPR Antagonist Assays
The assay measures intracellular changes of Ca^2+ mediated by the synthetic probing agonist 3-{[2-(2-Trifluoromethyl-biphenyl-4-yl)-benzo[b]thiophen-5-ylmethyl]-amino}-propionic acid (GNF-AC-1) in the HeLa-S1P1/Gα16 cell clone 1: HeLa (human cervix carcinoma, ATCC CCL2) cells stably expressing N-terminally myc-tagged human S1P1 receptors (GenBank™ accession No. NM_001400; UNIPROT P21453) and promiscuous Gα16 protein (GenBank™ accession number M63904, Swissprot P30679) are cultured at 37° C., 5% CO2, and 95% relative humidity. The cells are plated in 384 well black plates (10,000 cells per well). After 24 hours the cells are loaded with Fluo4-AM (1.6 μM in HBSS and 2.5 mM probenicid) for 1 hour at 37° C. After washing, the cells are transferred to the FLIPR. The test compounds are added at different concentrations (≦30 μM) in HBSS in the presence of 0.1% BSA and changes in fluorescence are recorded (indication of agonism). The probing agonist is added 15 minutes afterwards to the wells at a concentration giving 80% of the maximal activity (EC80). After each addition time points are collected as follows: 20 time points (2 seconds) before the addition of the agonist (Fmin) and 60 time points (1 or 2 seconds) after the addition of the probing agonist. This allows the determination of the maximal fluorescence (Fmax). The ratio (Fmax-Fmin)/Fmin is plotted against the log of the concentration of the test compounds and the IC50 (relative antagonism) is determined with the help of XLfit-4 software. […] A dose response curve of the probing agonist is determined on each plate in parallel. The compounds of the invention are typically active in this assay at a concentration ranging typically from <1 nM to 30 μM, usually from less than 1 nanomolar to 1 micromolar.

T1 sequence (P21453 whole entry): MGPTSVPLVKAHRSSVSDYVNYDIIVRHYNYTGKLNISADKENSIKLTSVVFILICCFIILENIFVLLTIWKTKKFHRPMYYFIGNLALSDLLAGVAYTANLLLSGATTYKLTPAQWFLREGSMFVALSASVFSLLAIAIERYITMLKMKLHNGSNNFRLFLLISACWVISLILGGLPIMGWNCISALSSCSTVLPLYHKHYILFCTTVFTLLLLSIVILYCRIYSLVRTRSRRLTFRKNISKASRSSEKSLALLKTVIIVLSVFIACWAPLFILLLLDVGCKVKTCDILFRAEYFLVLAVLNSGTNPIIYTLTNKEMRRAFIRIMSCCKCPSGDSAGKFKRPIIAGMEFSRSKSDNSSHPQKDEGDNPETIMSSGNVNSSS

IC50 [nM] | SMILES
1 | COc1cc(-c2cccc(NS(=O)(=O)c3cc(C)c(Cl)cc3C)c2)ccc1C(=O)NCC(=O)O [Example 70, {[3′-(4-Chloro-2,5-dimethyl-benzenesulfonylamino)-3-methoxy-biphenyl-4-carbonyl]-amino}-acetic acid]
1 | COc1cc(-c2cccc(NS(=O)(=O)c3cc(C)c(Cl)cc3C)c2)ccc1C(=O)N[C@@H](CO)C(=O)O [Example 71, (S)-2-{[3′-(4-Chloro-2,5-dimethyl-benzenesulfonylamino)-3-methoxy-biphenyl-4-carbonyl]-amino}-3-hydroxy-propionic acid]
5 | Cc1cc(S(=O)(=O)Nc2cccc(-c3cnc(C(=O)N[C@@H](CO)C(=O)O)cn3)c2)c(C)cc1Cl [Example 79, (S)-2-({5-[3-(4-Chloro-2,5-dimethyl-benzenesulfonylamino)-phenyl]-pyrazine-2-carbonyl}-amino)-3-hydroxy-propionic acid]
1.7 | Cc1cc(S(=O)(=O)Nc2cccc(-c3ccc(C(=O)N(C)[C@@H](CO)C(=O)O)cc3)c2)c(C)cc1Cl [Example 85, (S)-2-{[3′-(4-Chloro-2,5-dimethyl-benzenesulfonylamino)-biphenyl-4-carbonyl]-methyl-amino}-3-hydroxy-propionic acid]
1.5 | Cc1cc(S(=O)(=O)Nc2cccc(-c3ccc(C(=O)N[C@H](CO)C(=O)O)cc3)c2)c(C)cc1Cl [Example 86]
0.6 | Cc1cc(S(=O)(=O)Nc2cccc(-c3cc(C)c(C(=O)N[C@@H](CO)C(=O)O)c(C)c3)c2)c(C)cc1Cl [Example 131, (S)-2-{[3′-(4-Chloro-2,5-dimethyl-benzenesulfonylamino)-3,5-dimethyl-biphenyl-4-carbonyl]-amino}-3-hydroxy-propionic acid]
1.1 | Cc1cc(S(=O)(=O)Nc2cccc(-c3cc(C)c(C(=O)N[C@@H](C)C(=O)O)c(C)c3)c2)c(C)cc1Cl [Example 132, (S)-2-{[3′-(4-Chloro-2,5-dimethyl-benzenesulfonylamino)-3,5-dimethyl-biphenyl-4-carbonyl]-amino}-propionic acid]
3.5 | Cc1cc(S(=O)(=O)Nc2cccc(-c3cc(C)c(C(=O)N[C@H](CO)C(=O)O)c(C)c3)c2)c(C)cc1Cl [Example 133, (R)-2-{[3′-(4-Chloro-2,5-dimethyl-benzenesulfonylamino)-3,5-dimethyl-biphenyl-4-carbonyl]-amino}-3-hydroxy-propionic acid]
7 | Cc1cc(S(=O)(=O)Nc2cccc(-c3cc(C)c(C(=O)N[C@H](C)C(=O)O)c(C)c3)c2)c(C)cc1Cl [Example 134, (R)-2-{[3′-(4-Chloro-2,5-dimethyl-benzenesulfonylamino)-3,5-dimethyl-biphenyl-4-carbonyl]-amino}-propionic acid]

The next lines start with the compound.

SMILES | IC50 [nM]
Cc1cc(S(=O)(=O)Nc2cccc(-c3ccc(C(=O)NCC(=O)O)cc3)c2)c(C)cc1Cl [Example 23, {[3′-(4-Chloro-2,5-dimethyl-benzenesulfonylamino)-biphenyl-4-carbonyl]-amino}-acetic acid] | 3.2
Cc1cc(S(=O)(=O)Nc2cccc(-c3ccc(C(=O)N[C@@H](C)C(=O)O)cc3)c2)c(C)cc1Cl [Example 25, (S)-2-{[3′-(4-Chloro-2,5-dimethyl-benzenesulfonylamino)-biphenyl-4-carbonyl]-amino}-propionic acid] | 8.8
Cc1cc(S(=O)(=O)Nc2cccc(-c3ccc(C(=O)N[C@@H](CO)C(=O)O)cc3)c2)c(C)cc1Cl [Example 28] | 2.8
Cc1cc(S(=O)(=O)Nc2cccc(-c3ccc(C(=O)N[C@H](CC(=O)O)c4ccccc4)cc3)c2)c(C)cc1Cl [Example 36, (R)-3-{[3′-(4-Chloro-2,5-dimethyl-benzenesulfonylamino)-biphenyl-4-carbonyl]-amino}-3-phenyl-propionic acid] | 9.4
Cc1cc(S(=O)(=O)Nc2cccc(-c3ccc(C(=O)N[C@@H](CO)C(=O)O)c(C)c3)c2)c(C)cc1Cl [Example 45, (S)-2-{[3′-(4-Chloro-2,5-dimethyl-benzenesulfonylamino)-3-methyl-biphenyl-4-carbonyl]-amino}-3-hydroxy-propionic acid] | 1.1
Cc1cc(S(=O)(=O)Nc2cccc(-c3ccc(C(=O)N[C@H](CO)C(=O)O)c(C)c3)c2)c(C)cc1Cl [Example 46, (R)-2-{[3′-(4-Chloro-2,5-dimethyl-benzenesulfonylamino)-3-methyl-biphenyl-4-carbonyl]-amino}-3-hydroxy-propionic acid] | 0.8
Cc1cc(S(=O)(=O)Nc2cccc(-c3ccc(C(=O)N[C@H](C(=O)O)[C@@H](C)O)c(C)c3)c2)c(C)cc1Cl [Example 47, (2S,3R)-2-{[3′-(4-Chloro-2,5-dimethyl-benzenesulfonylamino)-3-methyl-biphenyl-4-carbonyl]-amino}-3-hydroxy-butyric acid] | 1.5
Cc1cc(S(=O)(=O)Nc2cccc(-c3ccc(C(=O)N[C@@H](COC(C)(C)C)C(=O)O)c(C)c3)c2)c(C)cc1Cl [Example 48, (S)-3-tert-Butoxy-2-{[3′-(4-chloro-2,5-dimethyl-benzenesulfonylamino)-3-methyl-biphenyl-4-carbonyl]-amino}-propionic acid] | 9
Cc1cc(S(=O)(=O)Nc2cccc(-c3ccc(C(=O)NC4(C(=O)O)CNC4)c(C)c3)c2)c(C)cc1Cl [Example 51, 3-{[3′-(4-Chloro-2,5-dimethyl-benzenesulfonylamino)-3-methyl-biphenyl-4-carbonyl]-amino}-azetidine-3-carboxylic acid] | 3
Cc1cc(S(=O)(=O)Nc2cccc(-c3ccc(C(=O)NC4(C(=O)O)CN(C)C4)c(C)c3)c2)c(C)cc1Cl [Example 55, 3-{[3′-(4-Chloro-2,5-dimethyl-benzenesulfonylamino)-3-methyl-biphenyl-4-carbonyl]-amino}-1-methyl-azetidine-3-carboxylic acid] | 5
CC(=O)N1CC(NC(=O)c2ccc(-c3cccc(NS(=O)(=O)c4cc(C)c(Cl)cc4C)c3)cc2C)(C(=O)O)C1 [Example 56, 1-Acetyl-3-{[3′-(4-chloro-2,5-dimethyl-benzenesulfonylamino)-3-methyl-biphenyl-4-carbonyl]-amino}-azetidine-3-carboxylic acid] | 5
Cc1cc(S(=O)(=O)Nc2cccc(-c3ccc(C(=O)NC4(C(=O)O)CC4)c(C)c3)c2)c(C)cc1Cl [Example 57, 1-{[3′-(4-Chloro-2,5-dimethyl-benzenesulfonylamino)-3-methyl-biphenyl-4-carbonyl]-amino}-cyclopropanecarboxylic acid] | 0.8
Cc1cc(S(=O)(=O)Nc2cccc(-c3ccc(C(=O)N[C@H](C(=O)O)[C@H](C)O)c(C)c3)c2)c(C)cc1Cl [Example 59, (2S,3S)-2-{[3′-(4-Chloro-2,5-dimethyl-benzenesulfonylamino)-3-methyl-biphenyl-4-carbonyl]-amino}-3-hydroxy-butyric acid] | 0.7
COC[C@H](NC(=O)c1ccc(-c2cccc(NS(=O)(=O)c3cc(C)c(Cl)cc3C)c2)cc1C)C(=O)O [Example 60, (S)-2-{[3′-(4-Chloro-2,5-dimethyl-benzenesulfonylamino)-3-methyl-biphenyl-4-carbonyl]-amino}-3-methoxy-propionic acid] | 1.5
Cc1cc(S(=O)(=O)Nc2cccc(-c3ccc(C(=O)N[C@H](C(=O)O)C(C)(C)O)c(C)c3)c2)c(C)cc1Cl [Example 61, (S)-2-{[3′-(4-Chloro-2,5-dimethyl-benzenesulfonylamino)-3-methyl-biphenyl-4-carbonyl]-amino}-3-hydroxy-3-methyl-butyric acid] | 0.4
CC[C@H](NC(=O)c1ccc(-c2cccc(NS(=O)(=O)c3cc(C)c(Cl)cc3C)c2)cc1C)C(=O)O [Example 62, (S)-2-{[3′-(4-Chloro-2,5-dimethyl-benzenesulfonylamino)-3-methyl-biphenyl-4-carbonyl]-amino}-butyric acid] | 0.5
Cc1cc(S(=O)(=O)Nc2cccc(-c3ccc(C(=O)N[C@@H](C)C(=O)O)c(C)c3)c2)c(C)cc1Cl [Example 63, (S)-2-{[3′-(4-Chloro-2,5-dimethyl-benzenesulfonylamino)-3-methyl-biphenyl-4-carbonyl]-amino}-propionic acid] | 1.3
Cc1cc(S(=O)(=O)Nc2cccc(-c3ccc(C(=O)NCC(=O)O)c(C)c3)c2)c(C)cc1Cl [Example 64, {[3′-(4-Chloro-2,5-dimethyl-benzenesulfonylamino)-3-methyl-biphenyl-4-carbonyl]-amino}-acetic acid] | 1.3
Cc1cc(S(=O)(=O)Nc2cccc(-c3ccc(C(=O)NCc4nnn[nH]4)c(C)c3)c2)c(C)cc1Cl [Example 66, 3′-(4-Chloro-2,5-dimethyl-benzenesulfonylamino)-3-methyl-biphenyl-4-carboxylic acid (1H-tetrazol-5-ylmethyl)-amide] | 5.5
